# Organism: Rattus norvegicus
# Experiment: DrugMatrix - Regimen: Daily Repeat
# Type: toxicity, organism-based, Sprague-Dawley
# Parameters: regimen Daily Repeat, gender Male, age 6-8 weeks
# Details: in vivo, iv, vehicle 100 % SALINE; for ABSOLUTE BASOPHIL / ABSOLUTE EOSINOPHIL / ABSOLUTE LYMPHOCYTE / ABSOLUTE MONOCYTE / ABSOLUTE SEGMENTED NEUTROPHIL / BASOPHIL / EOSINOPHIL / ERYTHROCYTE COUNT / HEMATOCRIT / HEMOGLOBIN / LEUKOCYTE COUNT / LYMPHOCYTE / MEAN CORPUSCULAR HEMOGLOBIN / MEAN CORPUSCULAR HEMOGLOBIN CONCENTRATION / MEAN CORPUSCULAR VOLUME / MONOCYTE / NEUTROPHIL / NUCLEATED RED BLOOD CELLS / PLATELET COUNT: tissue Blood; for ALANINE AMINOTRANSFERASE / ALBUMIN / ALKALINE PHOSPHATASE / ASPARTATE AMINOTRANSFERASE / BLOOD UREA NITROGEN / CARBON DIOXIDE / CHLORIDE / CHOLESTEROL / CREATINE PHOSPHOKINASE / CREATININE / GLUCOSE / LACTATE DEHYDROGENASE / LIPASE / PHOSPHORUS / POTASSIUM / SODIUM / TOTAL BILIRUBIN / TOTAL PROTEIN / URIC ACID: tissue Plasma
# [1] = 23 mg/kg, 120 h, dose level Low, time 5 day
# [2] = 487 mg/kg, 72 h, dose level High, time 3 day
# [3] = 487 mg/kg, 120 h, dose level High, time 5 day
structure (smiles),measurement,setting,value
Nc1ccn([C@@H]2O[C@H](CO)[C@@H](O)[C@@H]2O)c(=O)n1 [CYTARABINE],ABSOLUTE BASOPHIL,[1],0 CELLS/uL
same,ABSOLUTE EOSINOPHIL,[1],0 CELLS/uL
same,ABSOLUTE LYMPHOCYTE,[1],5539 CELLS/uL
same,ABSOLUTE MONOCYTE,[1],16.67 CELLS/uL
same,ABSOLUTE SEGMENTED NEUTROPHIL,[1],244.33 CELLS/uL
same,BASOPHIL,[1],0%
same,EOSINOPHIL,[1],0%
same,ERYTHROCYTE COUNT,[1],5.12 x10E6/uL
same,HEMATOCRIT,[1],33.83%
same,HEMOGLOBIN,[1],13.53 G/DL
same,LEUKOCYTE COUNT,[1],5.8 x10E3/uL
same,LYMPHOCYTE,[1],95%
same,MEAN CORPUSCULAR HEMOGLOBIN,[1],26.47 pg
same,MEAN CORPUSCULAR HEMOGLOBIN CONCENTRATION,[1],40 G/DL
same,MEAN CORPUSCULAR VOLUME,[1],66.2 fL
same,MONOCYTE,[1],0.33%
same,NEUTROPHIL,[1],4.67%
same,NUCLEATED RED BLOOD CELLS,[1],0 /100WBC
same,PLATELET COUNT,[1],1095.67 x10E3/uL
same,ALANINE AMINOTRANSFERASE,[1],41.67 u/L
same,ALBUMIN,[1],4.1 G/DL
same,ALKALINE PHOSPHATASE,[1],306.67 u/L
same,ASPARTATE AMINOTRANSFERASE,[1],78.33 u/L
same,BLOOD UREA NITROGEN,[1],12.67 mg/dL
same,CARBON DIOXIDE,[1],26.33 mmol/L
same,CHLORIDE,[1],99.33 MEQ/L
same,CHOLESTEROL,[1],67.67 mg/dL
same,CREATINE PHOSPHOKINASE,[1],261.33 u/L
same,CREATININE,[1],0.21 mg/dL
same,GLUCOSE,[1],172 mg/dL
same,LACTATE DEHYDROGENASE,[1],75 u/L
same,LIPASE,[1],11.33 u/L
same,PHOSPHORUS,[1],10.17 mg/dL
same,POTASSIUM,[1],5.08 MEQ/L
same,SODIUM,[1],144.13 MEQ/L
same,TOTAL BILIRUBIN,[1],0.17 mg/dL
same,TOTAL PROTEIN,[1],5.77 G/DL
same,URIC ACID,[1],0.87 mg/dL
same,ABSOLUTE BASOPHIL,[2],0 CELLS/uL
same,ABSOLUTE EOSINOPHIL,[2],62 CELLS/uL
same,ABSOLUTE LYMPHOCYTE,[2],7623.33 CELLS/uL
same,ABSOLUTE MONOCYTE,[2],62 CELLS/uL
same,ABSOLUTE SEGMENTED NEUTROPHIL,[2],686 CELLS/uL
same,BASOPHIL,[2],0%
same,EOSINOPHIL,[2],0.67%
same,ERYTHROCYTE COUNT,[2],4.4 x10E6/uL
same,HEMATOCRIT,[2],28.67%
same,HEMOGLOBIN,[2],11.3 G/DL
same,LEUKOCYTE COUNT,[2],8.43 x10E3/uL
same,LYMPHOCYTE,[2],91.33%
same,MEAN CORPUSCULAR HEMOGLOBIN,[2],25.7 pg
same,MEAN CORPUSCULAR HEMOGLOBIN CONCENTRATION,[2],39.4 G/DL
same,MEAN CORPUSCULAR VOLUME,[2],65.13 fL
same,MONOCYTE,[2],0.67%
same,NEUTROPHIL,[2],7.33%
same,NUCLEATED RED BLOOD CELLS,[2],0 /100WBC
same,PLATELET COUNT,[2],1093.33 x10E3/uL
same,ALANINE AMINOTRANSFERASE,[2],45.67 u/L
same,ALBUMIN,[2],4.07 G/DL
same,ALKALINE PHOSPHATASE,[2],302.33 u/L
same,ASPARTATE AMINOTRANSFERASE,[2],81.33 u/L
same,BLOOD UREA NITROGEN,[2],12 mg/dL
same,CARBON DIOXIDE,[2],31 mmol/L
same,CHLORIDE,[2],101.67 MEQ/L
same,CHOLESTEROL,[2],77.67 mg/dL
same,CREATINE PHOSPHOKINASE,[2],242.33 u/L
same,CREATININE,[2],0.19 mg/dL
same,GLUCOSE,[2],168.33 mg/dL
same,LACTATE DEHYDROGENASE,[2],55.33 u/L
same,LIPASE,[2],10.67 u/L
same,PHOSPHORUS,[2],10.87 mg/dL
same,POTASSIUM,[2],5.4 MEQ/L
same,SODIUM,[2],145.23 MEQ/L
same,TOTAL BILIRUBIN,[2],0.2 mg/dL
same,TOTAL PROTEIN,[2],5.93 G/DL
same,URIC ACID,[2],0.8 mg/dL
same,ABSOLUTE BASOPHIL,[3],0 CELLS/uL
same,ABSOLUTE EOSINOPHIL,[3],10 CELLS/uL
same,ABSOLUTE LYMPHOCYTE,[3],3604.33 CELLS/uL
same,ABSOLUTE MONOCYTE,[3],0 CELLS/uL
same,ABSOLUTE SEGMENTED NEUTROPHIL,[3],152.33 CELLS/uL
same,BASOPHIL,[3],0%
same,EOSINOPHIL,[3],0.33%
same,ERYTHROCYTE COUNT,[3],4.2 x10E6/uL
same,HEMATOCRIT,[3],26.53%
same,HEMOGLOBIN,[3],10.7 G/DL
same,LEUKOCYTE COUNT,[3],3.77 x10E3/uL
same,LYMPHOCYTE,[3],95.67%
same,MEAN CORPUSCULAR HEMOGLOBIN,[3],25.43 pg
same,MEAN CORPUSCULAR HEMOGLOBIN CONCENTRATION,[3],40.37 G/DL
same,MEAN CORPUSCULAR VOLUME,[3],63.07 fL
same,MONOCYTE,[3],0%
same,NEUTROPHIL,[3],4%
same,NUCLEATED RED BLOOD CELLS,[3],0 /100WBC
same,PLATELET COUNT,[3],1216.67 x10E3/uL
same,ALANINE AMINOTRANSFERASE,[3],41.67 u/L
same,ALBUMIN,[3],4.1 G/DL
same,ALKALINE PHOSPHATASE,[3],275.33 u/L
same,ASPARTATE AMINOTRANSFERASE,[3],82.33 u/L
same,BLOOD UREA NITROGEN,[3],13.33 mg/dL
same,CARBON DIOXIDE,[3],26 mmol/L
same,CHLORIDE,[3],100.67 MEQ/L
same,CHOLESTEROL,[3],71.33 mg/dL
same,CREATINE PHOSPHOKINASE,[3],326 u/L
same,CREATININE,[3],0.23 mg/dL
same,GLUCOSE,[3],159 mg/dL
same,LACTATE DEHYDROGENASE,[3],65 u/L
same,LIPASE,[3],11 u/L
same,PHOSPHORUS,[3],9.23 mg/dL
same,POTASSIUM,[3],5.41 MEQ/L
same,SODIUM,[3],145.37 MEQ/L
same,TOTAL BILIRUBIN,[3],0.2 mg/dL
same,TOTAL PROTEIN,[3],5.7 G/DL
same,URIC ACID,[3],0.57 mg/dL
